Reference: the OPERA property sets (Mansouri et al. 2018)

| Structure (SMILES) | logP |
| --- | --- |
| [N-]=[N+]=N[C@H]1C[C@H](n2cnc3c(N)ncnc32)O[C@@H]1CO | 0.35 |
| O=c1ccn(C2CC(O)C(CO)O2)c(=O)[nH]1 (stereo not given) | -1.51 |
| [N-]=[N+]=N[C@H]1C[C@H](n2cnc3c(N)nc(N)nc32)O[C@@H]1CO | 0.24 |
| Nc1ncnc2c1ncn2[C@H]1C[C@H](F)[C@@H](CO)O1 | 0.08 |
| O=c1[nH]c(=O)n([C@H]2CC[C@@H](CO)O2)cc1I | -0.61 |
| Nc1nc(=O)c2ncn([C@H]3C[C@H](F)[C@@H](CO)O3)c2[nH]1 | -0.66 |
| O=c1[nH]c(=O)n([C@H]2C[C@H](F)[C@@H](CO)O2)cc1Cl | -0.17 |
| Nc1nc(=O)c2ncn([C@H]3C=C[C@@H](CO)O3)c2[nH]1 | -1.21 |
| [N-]=[N+]=NC1C(CO)OC(n2cnc3c(N)ncnc32)C1N=[N+]=[N-] (stereo not given) | 0.8 |
| O=c1ccn([C@H]2C=C[C@@H](CO)O2)c(=O)[nH]1 | -1.07 |
| O=c1[nH]c(=O)n([C@H]2CC[C@@H](CO)O2)cc1Cl | -1.11 |
| Nc1nc(N)c2ncn(C3CC(O)C(CO)O3)c2n1 (stereo not given) | -0.52 |
| Cc1cn([C@H]2C[C@H](F)[C@@H](CO)O2)c(=O)[nH]c1=O | -0.28 |
| [N-]=[N+]=NC1CC(n2ccc(=O)[nH]c2=O)OC1CO (stereo not given) | -0.32 |
| O=c1[nH]c(=O)n(C2CC(F)C(CO)O2)cc1Br (stereo not given) | -0.04 |
| O=c1[nH]c(=O)n(C2CCC(CO)O2)cc1Br (stereo not given) | -0.99 |
| O=c1ccn(C2CC(F)C(CO)O2)c(=O)[nH]1 (stereo not given) | -0.49 |
| O=c1[nH]c(=O)n(C2CC(F)C(CO)O2)cc1I (stereo not given) | 0.21 |
| Nc1nc(N)c2ncn(C3CC(F)C(CO)O3)c2n1 (stereo not given) | 0.05 |
| Nc1nc(=O)c2ncn([C@H]3CC[C@@H](CO)O3)c2[nH]1 | -1.01 |
